2 compounds from patent US12472182B2, “Compositions comprising regulatory t cells and methods of making and using the same” (Cellenkos, Inc., priority 2019, dated 2025) can be followed below.

The subject of data set [1] is xenogeneic mouse graft versus host disease (GVHD) model. The following applies: in vivo. On the procedure: FIG. 33 depicts a schematic for treatment of a xenogeneic mouse graft versus host disease (GVHD) model with a ruxolitinib and activated Treg cells regimen. PBMC=peripheral blood mononuclear cells.
A xenogeneic mouse graft versus host disease (GVHD) model was treated with a ruxolitinib and activated CB Treg cells regimen, as depicted in FIG. 33. NSG mice underwent sublethal irradiation on day −1 followed by injection of 1×10^7 donor peripheral blood (PB) mononuclear cells (MNCs) on day 0. Oral ruxolitinib at 1 mg daily was fed continuously to the mice in the presence or absence of 1×10^7 CB Treg cells, tagged with CellTrace™ Violet dye (ThermoFisher), administered on days +4, +7, +11, +18. Mice were followed every other day for weight, GVHD score and survival. Serial blood draws were performed to analyze for cell compartment and cytokine assays.

Data set [2] relates to interferon (IFN)-gamma released by SLE-PBMC. Briefly: IFN-gamma release by pathogenic lupus cells. It is filed as cell-based, human. The following applies: control, non-specific inflammatory stimulus. The text has this: FIG. 32 is a bar graph depicting the amount of interferon (IFN)-gamma released by pathogenic lupus cells in the presence or absence of combinations of (1) activated Treg cells; (2) ruxolitinib; and/or (3) camptothecin. Rux=ruxolitinib. SLE-PBMC=peripheral blood mononuclear cells derived from subjects with systemic lupus erythematosus. D6=Day 6.

Regarding `N#CC[C@H](C1CCCC1)n1cc(-c2ncnc3[nH]ccc23)cn1` [ruxolitinib], in data set [1], the “CB Treg persistence” value is reported as “improved CB Treg persistence”.
`CC[C@@]1(O)C(=O)OCc2c1cc1n(c2=O)Cc2cc3ccccc3nc2-1` [Camptothecin]: in data set [2], the “IFNγ secretion from CB Treg cells” value is reported as “does not increase IFNγ secretion”.
